± gives the expanded uncertainty stated by the source.
Conditions: Liquid

Row | vapor or sublimation pressure (313.15 K) | vapor or sublimation pressure (323.15 K) | vapor or sublimation pressure (333.15 K) | vapor or sublimation pressure (343.15 K) | vapor or sublimation pressure (363.15 K) | vapor or sublimation pressure (353.15 K) | Structure (SMILES)
1 | 909 ± 6 kPa | 1181 ± 7 kPa | 1509 ± 10 kPa | 1898 ± 12 kPa | 2901 ± 18 kPa |  | CC(F)F [1,1-difluoroethane]
2 | 377 ± 3 kPa | 495 ± 4 kPa | 638 ± 4 kPa | 810 ± 5 kPa | 1249 ± 8 kPa | 1012 ± 6 kPa | CCCC [butane]

— the NIST ThermoML archive (doi:10.1016/j.jct.2006.12.013)
